Assay results: the supplement of paper PMC11061612

Tests used:
Experiment in all cases: combination Emax (second highest fraction inhibited in the dose matrix, 72 h); higher = more inhibition; extreme values may be limits of the assay
42-MG-BA (Glioblastoma) = tested on: 42-MG-BA (Glioblastoma)
Outline: (§1)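 After 24 hours at 37°C and 5% CO2 in 1536-well plates, cells in DMEM/F12 or RPMI plus 10% FBS received two-drug dose matrices for 72 hours. Viability came from CellTiter-Glo 2.0 luminescence and was scaled as inhibition, anchored at 0 by vehicle wells and at 1 by blank wells. Combination Emax is taken as the second-highest inhibition in the matrix, and Bliss excess as the observed combination effect less EA + EB − EA·EB, with EA and EB the single-agent effects.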

[1] = tested on: CCRF-CEM (T-Lymphoblastic Leukemia)
Outline: as §1

[2] = tested on: DEL (T-Cell Non-Hodgkin's Lymphoma)
Outline: as §1

[3] = tested on: Daoy (Other Solid Carcinomas)
Outline: as §1

ES4 (Ewing's Sarcoma) = tested on: ES4 (Ewing's Sarcoma)
Outline: as §1

[4] = tested on: HCC-78 (Lung Adenocarcinoma)
Outline: as §1

[5] = tested on: HO-1-N-1 (Oral Cavity Carcinoma)
Outline: as §1

HOS (Osteosarcoma) = tested on: HOS (Osteosarcoma)
Outline: as §1

[6] = tested on: HT-1376 (Bladder Carcinoma)
Outline: as §1

[7] = tested on: Hs-578-T (Breast Carcinoma)
Outline: as §1

[8] = tested on: KURAMOCHI (Ovarian Carcinoma)
Outline: as §1

[9] = tested on: ME-1 (Acute Myeloid Leukemia)
Outline: as §1

NB10 (Neuroblastoma) = tested on: NB10 (Neuroblastoma)
Outline: as §1

[10] = tested on: NCI-H2085 (Non-Small Cell Lung Carcinoma)
Outline: as §1

[11] = tested on: RO82-W-1 (Thyroid Gland Carcinoma)
Outline: as §1

[12] = tested on: Ramos-2G6-4C10 (Burkitt's Lymphoma)
Outline: as §1

[13] = tested on: SK-ES-1 (Ewing's Sarcoma)
Outline: as §1

T98G (Glioblastoma) = tested on: T98G (Glioblastoma)
Outline: as §1

[14] = tested on: TCCSUP (Bladder Carcinoma)
Outline: as §1

[15] = tested on: UM-UC-3 (Bladder Carcinoma)
Outline: as §1

| Compound | combination Emax (42-MG-BA (Glioblastoma)) | combination Emax [1] | combination Emax [2] | combination Emax [3] | combination Emax (ES4 (Ewing's Sarcoma)) | combination Emax [4] | combination Emax [5] | combination Emax (HOS (Osteosarcoma)) | combination Emax [6] | combination Emax [7] | combination Emax [8] | combination Emax [9] | combination Emax (NB10 (Neuroblastoma)) | combination Emax [10] | combination Emax [11] | combination Emax [12] | combination Emax [13] | combination Emax (T98G (Glioblastoma)) | combination Emax [14] | combination Emax [15] |
| --- | --- | --- | --- | --- | --- | --- | --- | --- | --- | --- | --- | --- | --- | --- | --- | --- | --- | --- | --- | --- |
| CC1(C)CCC(CN2CCN(c3ccc(C(=O)NS(=O)(=O)c4ccc(NCC5CCOCC5)c([N+](=O)[O-])c4)c(Oc4cnc5[nH]ccc5c4)c3)CC2)=C(c2ccc(Cl)cc2)C1 [Venetoclax] + C[C@@H]1COCCN1C2=NC(=NC(=C2)C3(CC3)[S@](=N)(=O)C)C4=C5C=CNC5=NC=C4 [AZD6738] (first compound max 1 µM, 7x7, partner max 10 µM) | 0.678 | 1 | 0.996 | 0.9 | 0.793 | 0.661 | 0.871 | 0.642 | 0.432 | 0.909 | 0.567 | 1 | 0.849 | 0.534 | 0.322 | 0.789 | 0.914 | 0.889 | 0.638 | 0.538 |
| CC1(C)CCC(CN2CCN(c3ccc(C(=O)NS(=O)(=O)c4ccc(NCC5CCOCC5)c([N+](=O)[O-])c4)c(Oc4cnc5[nH]ccc5c4)c3)CC2)=C(c2ccc(Cl)cc2)C1 [Venetoclax] + C[C@@H](Nc1cc(F)cc(F)c1)c1cc(C(=O)N(C)C)cc2c(=O)cc(N3CCOCC3)oc12 [AZD8186] (first compound max 1 µM, 7x7, partner max 3 µM) | 0.391 | 0.95 | 0.312 | 0.176 | 0.211 | 0.261 | 0.152 | 0.0842 | 0.0567 | 0.734 | 0.306 | 1 | 0.24 | 0.354 | 0.217 | 0.221 | 0.64 | 0.411 | 0.131 | 0.164 |
| CC1(C)CCC(CN2CCN(c3ccc(C(=O)NS(=O)(=O)c4ccc(NCC5CCOCC5)c([N+](=O)[O-])c4)c(Oc4cnc5[nH]ccc5c4)c3)CC2)=C(c2ccc(Cl)cc2)C1 [Venetoclax] + Cc1cc2ncnn2cc1Nc1ncc2c(n1)n(C1CCOCC1)c(=O)n2C [AZD7648] (first compound max 1 µM, 7x7, partner max 10 µM) | 0.43 | 0.931 | 0.457 | 0.172 | 0.104 | 0.243 | 0.331 | 0.204 | 0.193 | 0.831 | 0.477 | 1 | 0.246 | 0.143 | 0.224 | 0.289 | 0.465 | 0.352 | 0.271 | 0.139 |
| CC1(C)CCC(CN2CCN(c3ccc(C(=O)NS(=O)(=O)c4ccc(NCC5CCOCC5)c([N+](=O)[O-])c4)c(Oc4cnc5[nH]ccc5c4)c3)CC2)=C(c2ccc(Cl)cc2)C1 [Venetoclax] + Cn1cnc2c(F)c(Nc3ccc(Br)cc3Cl)c(C(=O)NOCCO)cc21 [Selumetinib] (first compound max 1 µM, 7x7, partner max 3 µM) | 0.215 | 0.926 | 0.382 | 0.0883 | 0.0348 | 0.167 | 0.205 | 0.089 | 0.163 | 0.822 | 0.502 | 1 | 0.381 | 0.23 | 0.116 | 0.035 | 0.285 | 0.163 | 0.136 | 0.189 |
